Test results from EP0094632A1, “(-)-15-Deoxyspergualin, a process for the preparation of the same, and a pharmaceutical composition containing the same” (priority 1982, dated 1983).

How the values were obtained:
[1] = system: Bacillus subtilis PCI-219; assay: Antibacterial activity relative to (-)-spergualin; assay type: cell-based; conditions: relative to (-)-spergualin (3HCl·½H2O)
Source text: The compound was colorless and syrupy, and its melting point could not be measured clearly. […] The antibacterial activity against Bacillus subtilis PCI-219' was 134 % of that of (-)-spergualin (3HCl·½H2O).

Chemical stability = assay type: physicochemical
[2] = system: Mouse Leukemia L1210 cells; assay: Treatment of mouse Leukemia L1210 (survival of intraperitoneally inoculated mice); assay type: in vivo; conditions: for No. of mice that survived 60 days: groups of 8 mice; for T/C %: observed 60 days
Procedure: […] Mouse Leukemia L1210 cells were inoculated intraperitoneally to groups of 8 mice each. The test compound dissolved in physiological saline solution was intraperitoneally administered once daily for 9 consecutive days, starting on the day inoculation. The animals were raised and observed for 60 days to determine survival rates (%). The survival rates were calculated from the following equation:
T [average period (in days) of survival for the treatment group] X 100
C [average period (in days) for survival for the non-treatment group]
The average survival period for the control (non-treatment group was 7.6 go 8.9 days.
The test results are shown in Table 1 along with those on (-)-spergualin.
Table 1:Efficacy of (-)-15-deoxyspergualin in the treatment of mose Leukemia L1210

[3] = Carcinostatic action compared with synthetic 15-deoxyspergualin; conditions: compared with 15-deoxyspergualin synthesized previously by condensation
[4] = 0.05 mg/kg/day i.p. once daily for 9 days
[5] = 0.10 mg/kg/day i.p. once daily for 9 days
[6] = 0.20 mg/kg/day i.p. once daily for 9 days
[7] = 0.39 mg/kg/day i.p. once daily for 9 days
[8] = 0.78 mg/kg/day i.p. once daily for 9 days
[9] = 1.56 mg/kg/day i.p. once daily for 9 days
[10] = 3.13 mg/kg/day i.p. once daily for 9 days
[11] = 6.25 mg/kg/day i.p. once daily for 9 days
[12] = 12.5 mg/kg/day i.p. once daily for 9 days
[13] = 25 mg/kg/day i.p. once daily for 9 days
[14] = 50 mg/kg/day i.p. once daily for 9 days

## N=C(N)NCCCCCCC(=O)NC(O)C(=O)NCCCCNCCCN (single isomer, unassigned; (-)) [(-)-15-Deoxyspergualin, (-)-15-deoxyspergualin]
[1]
  antibacterial activity against Bacillus subtilis PCI-219, % of that of (-)-spergualin: 134%
Chemical stability; alkalis and acids
  stability to alkalis and acids: very unstable
Chemical stability; free base
  stability in the form of a free base: unstable
[2]; [4]
  No. of mice that survived 60 days: 0/8
  T/C %: 129%
[2]; [5]
  No. of mice that survived 60 days: 0/8
  T/C %: 138%
[2]; [6]
  No. of mice that survived 60 days: 6/8
  T/C %: >664%
[2]; [7]
  No. of mice that survived 60 days: 6/8
  T/C %: >629%
[2]; [8]
  No. of mice that survived 60 days: 8/8
  T/C %: >789%
[2]; [9]
  No. of mice that survived 60 days: 2/8
  T/C %: >493%
[2]; [10]
  No. of mice that survived 60 days: 2/8
  T/C %: >526%
[2]; [11]
  No. of mice that survived 60 days: 0/8
  T/C %: 408%
[3]
  carcinostatic action: markedly better carcinostatic action

## N=C(N)NCCCC[C@H](O)CC(=O)NC(O)C(=O)NCCCCNCCCN (single isomer, unassigned; (-)) [(-)-Spergualin, (-)-spergualin, reference compound]
[2]; [8]
  No. of mice that survived 60 days: 0/8
  T/C %: 107%
[2]; [9]
  No. of mice that survived 60 days: 1/8
  T/C %: >301%
[2]; [10]
  No. of mice that survived 60 days: 3/8
  T/C %: >441%
[2]; [11]
  No. of mice that survived 60 days: 8/8
  T/C %: >732%
[2]; [12]
  No. of mice that survived 60 days: 4/8
  T/C %: >586%
[2]; [13]
  No. of mice that survived 60 days: 0/8
  T/C %: 334%
[2]; [14]
  No. of mice that survived 60 days: 0/8
  T/C %: 295%
